{
  "source": "patent US8772480B2",
  "about": "“Inhibitors of PI3 kinase and/or mTOR” (priority 2009, dated 2014)",
  "data": [
    {"tested_on": "phosphorylation of Akt at Serine 473 in U87 MG cells", "test": "cells", "conditions": "Homo sapiens, U-87 MG, 2 h, read-out: U87Cell IC50", "units": {"IC50": "nM"}, "values": [
      {"molecule": "COc1ccc(NCc2cnc(Nc3ccc(OC)nc3)c(-c3nc(C)nc4[nH]cnc34)c2)cc1", "note": "[Example 77, 5-((4-methoxyphenylamino)methyl)-N-(6-methoxypyridin-3-yl)-3-(2-methyl-9H-purin-6-yl)pyridin-2-amine]", "IC50": 167},
      {"molecule": "Cc1nc(N)nc(-c2cccnc2Nc2cnc(Cl)c(NS(=O)(=O)N3CCOCC3)c2)n1", "note": "[Example 366, N-(5-(3-(4-Amino-6-Methyl-1,3,5-Triazin-2-yl)Pyridin-2-Ylamino)-2-Chloropyridin-3-yl)Morpholine-4-Sulfonamide]", "IC50": 40},
      {"molecule": "Cc1nc(N)nc(-c2cccnc2Nc2cnc(Cl)c(N)c2)n1", "note": "[Example 265, N5-(3-(4-Amino-6-Methyl-1,3,5-Triazin-2-yl)Pyridin-2-yl)-2-Chloropyridine-3,5-Diamine]", "IC50": 349},
      {"molecule": "Cc1nc(N)nc(-c2cccnc2Nc2cnc(Cl)c(NS(=O)(=O)N(C)C(C)C)c2)n1", "note": "[Example 367, N-(5-(3-(4-Amino-6-Methyl-1,3,5-Triazin-2-yl)Pyridin-2-Ylamino)-2-Chloropyridin-3-yl)-N-Isopropyl-N-Methylaminosulfamide]", "IC50": 246}
    ]},
    {"tested_on": "phosphorylation of Akt at Serine 473 in U87 MG cells", "test": "cells", "conditions": "Homo sapiens, U-87 MG, 2 h, read-out: U87Cell IC50, pAkt (Ser 473), U87 MG cells, two hours with compound", "units": {"IC50": "nM"}, "values": [
      {"molecule": "COc1ncc(Nc2ncc(F)cc2-c2nc(C)nc(N)n2)cc1F", "note": "[Example 185, 4-(5-Fluoro-2-(5-Fluoro-6-Methoxypyridin-3-Ylamino)Pyridin-3-yl)-6-Methyl-1,3,5-Triazin-2-Amine]", "IC50": 199},
      {"molecule": "COc1ncc(Nc2ncc(C(C)(C)N3CCN(S(C)(=O)=O)CC3)cc2-c2nc(C)nc(N)n2)cc1F", "note": "[Example 280, 4-(2-(5-Fluoro-6-Methoxypyridin-3-Ylamino)-5-(2-(4-(Methylsulfonyl)Piperazin-1-yl)Propan-2-yl)Pyridin-3-yl)-6-Methyl-1,3,5-Triazin-2-Amine]", "IC50": 14},
      {"molecule": "Cc1nc(N)nc(-c2cc(CN3CCN(S(C)(=O)=O)CC3)cnc2Nc2cc(F)cc3[nH]ncc23)n1", "note": "[Example 245, N-(3-(4-Amino-6-Methyl-1,3,5-Triazin-2-yl)-5-((4-(Methylsulfonyl)Piperazin-1-yl)Methyl)Pyridin-2-yl)-6-Fluoro-1H-Indazol-4-Amine]", "IC50": 19},
      {"molecule": "COc1ccc(Nc2ncc(Cl)cc2-c2nc(C)nc3[nH]cnc23)cn1", "note": "[Example 127, 5-chloro-N-(6-methoxypyridin-3-yl)-3-(2-methyl-9H-purin-6-yl)pyridin-2-amine]", "IC50": 249},
      {"molecule": "COc1ncc(Nc2ncc(C3=CCOCC3)cc2-c2nc(C)nc(N)n2)cc1F", "note": "[Example 343, 4-(5-(3,6-Dihydro-2H-Pyran-4-yl)-2-(5-Fluoro-6-Methoxypyridin-3-Ylamino)Pyridin-3-yl)-6-Methyl-1,3,5-Triazin-2-Amine]", "IC50": 15},
      {"molecule": "COc1ccc(Nc2nc(NC3CCCC3)ncc2-c2nc(C)nc(N)n2)cn1", "note": "[Example 126, 5-(4-amino-6-methyl-1,3,5-triazin-2-yl)-N2-cyclopentyl-N4-(6-methoxypyridin-3-yl)pyrimidine-2,4-diamine]", "IC50": 240},
      {"molecule": "CC(=O)Nc1ccc(Nc2ncccc2-c2nc(C)nc3[nH]cnc23)cc1", "note": "[Example 102, N-(4-(3-(2-methyl-9H-purin-6-yl)pyridin-2-ylamino)phenyl)acetamide]", "IC50": 88},
      {"molecule": "COc1cccc(NCc2cnc(Nc3ccc(OC)nc3)c(-c3nc(C)nc4[nH]cnc34)c2)c1", "note": "[Example 78, 5-((3-methoxyphenylamino)methyl)-N-(6-methoxypyridin-3-yl)-3-(2-methyl-9H-purin-6-yl)pyridin-2-amine]", "IC50": 479},
      {"molecule": "Cc1nc(N)nc(-c2cccnc2Nc2ccc(NC(=O)Nc3cccc(F)c3)nc2)n1", "note": "[Example 191, 1-(5-(3-(4-Amino-6-Methyl-1,3,5-Triazin-2-yl)Pyridin-2-Ylamino)Pyridin-2-yl)-3-(3-Fluorophenyl)Urea]", "IC50": 2130},
      {"molecule": "COc1ccc(Nc2ncc(CNc3cccnc3)cc2-c2nc(C)nc3[nH]cnc23)cn1", "note": "[Example 79, N-(6-methoxypyridin-3-yl)-3-(2-methyl-9H-purin-6-yl)-5-((pyridin-3-ylamino)methyl)pyridin-2-amine]", "IC50": 72},
      {"molecule": "COC(=O)Nc1ccc(Nc2ncc(Cl)cc2-c2nc(C)nc(N)n2)cn1", "note": "[Example 194, Methyl 5-(3-(4-Amino-6-Methyl-1,3,5-Triazin-2-yl)-5-Chloropyridin-2-Ylamino)Pyridin-2-Ylcarbamate]", "IC50": "> 10000"},
      {"molecule": "COc1ncc(Nc2ncc(C(=O)N3CCN(S(C)(=O)=O)CC3)cc2-c2nc(C)nc(N)n2)cc1F", "note": "[Example 152, 4-(2-((5-Fluoro-6-Methoxy-3-Pyridinyl)Amino)-5-((4-(Methylsulfonyl)-1-Piperazinyl)Carbonyl)-3-Pyridinyl)-6-Methyl-1,3,5-Triazin-2-Amine]", "IC50": 37},
      {"molecule": "COc1ncc(Nc2ncc([C@@H](C)N3CCN(S(C)(=O)=O)C[C@H]3C)cc2-c2nc(C)nc(N)n2)cc1F", "note": "[Example 360, 4-(2-(5-Fluoro-6-Methoxypyridin-3-Ylamino)-5-((R)-1-((R)-2-Methyl-4-(Methylsulfonyl)Piperazin-1-yl)Ethyl)Pyridin-3-yl)-6-Methyl-1,3,5-Triazin-2-Amine]", "IC50": 12},
      {"molecule": "Cc1nc(N)nc(-c2cccnc2Nc2ccc(NC(=O)Nc3ccccc3)nc2)n1", "note": "[Example 190, 1-(5-(3-(4-Amino-6-Methyl-1,3,5-Triazin-2-yl)Pyridin-2-Ylamino)Pyridin-2-yl)-3-Phenylurea]", "IC50": 891},
      {"molecule": "Cc1nc(N)nc(-c2cc(C(C)(C)O)cnc2Nc2cncc(S(C)(=O)=O)c2)n1", "note": "[Example 355, 2-(5-(4-Amino-6-Methyl-1,3,5-Triazin-2-yl)-6-(5-(Methylsulfonyl)Pyridin-3-Ylamino)Pyridin-3-yl)Propan-2-ol]", "IC50": 1160},
      {"molecule": "COc1cccc(Nc2cnc(Nc3ccc(OC)nc3)c(-c3nc(C)nc4[nH]cnc34)c2)c1", "note": "[Example 96, N5-(3-methoxyphenyl)-N2-(6-methoxypyridin-3-yl)-3-(2-methyl-9H-purin-6-yl)pyridine-2,5-diamine]", "IC50": 412},
      {"molecule": "CC(=O)Nc1ccc(Nc2ncc(Cc3ccc(S(C)(=O)=O)cc3)cc2-c2nc(C)nc3[nH]cnc23)cn1", "note": "[Example 105, N-(5-(3-(2-methyl-9H-purin-6-yl)-5-(4-(methylsulfonyl)benzyl)pyridin-2-ylamino)pyridin-2-yl)acetamide]", "IC50": 159},
      {"molecule": "Cc1nc(N)nc(-c2cccnc2Nc2ccc3oc(C)nc3c2)n1", "note": "[Example 165, N-(3-(4-Amino-6-Methyl-1,3,5-Triazin-2-yl)Pyridin-2-yl)-2-Methylbenzo[D]Oxazol-5-Amine]", "IC50": 2590},
      {"molecule": "Cc1nc(N)cc(-c2cc([C@H](C)N3CCOCC3)cnc2Nc2cnc(Cl)c(NS(=O)(=O)N(C)C)c2)n1", "note": "[Example 382, (S—)N-(2-Chloro-5-(3-(6-Amino-2-Methylpyrimidin-4-yl)-5-(1-Morpholinoethyl)Pyridin-2-Ylamino)Pyridin-3-yl)-N,N-Dimethylaminosulfamide]", "IC50": 23},
      {"molecule": "COc1ncc(Nc2ncc(C(C)N3CCN(S(C)(=O)=O)CC3)cc2-c2nc(C)nc(N)n2)cc1F", "note": "(stereo not shown) [Example 143, 4-(2-(5-fluoro-6-methoxypyridin-3-ylamino)-5-(1-(4-(methylsulfonyl)piperazin-1-yl)ethyl)pyridin-3-yl)-6-methyl-1,3,5-triazin-2-amine]", "IC50": 6},
      {"molecule": "CC(=O)Nc1ccc(Nc2ncc(Cl)cc2-c2nc(C)nc(N)n2)cn1", "note": "[Example 193, N-(5-(3-(4-Amino-6-Methyl-1,3,5-Triazin-2-yl)-5-Chloropyridin-2-Ylamino)Pyridin-2-yl)Acetamide]", "IC50": 100},
      {"molecule": "COc1ccc(Nc2nc(-c3ccncc3)ncc2-c2nc(C)nc(N)n2)cn1", "note": "[Example 124, 4-(4-(6-methoxypyridin-3-ylamino)-2-(pyridin-4-yl)pyrimidin-5-yl)-6-methyl-1,3,5-triazin-2-amine]", "IC50": "> 10000"},
      {"molecule": "Cc1nc(-c2cccnc2Nc2ccc(NC(=O)C3CC3)cc2)c2nc[nH]c2n1", "note": "[Example 182, N-(4-(3-(2-Methyl-9H-Purin-6-yl)Pyridin-2-Ylamino)Phenyl)Cyclopropanecarboxamide]", "IC50": 92},
      {"molecule": "CCOc1ccc(Nc2ncccc2-c2nc(C)nc(N)n2)cn1", "note": "[Example 49, 4-(2-(6-ethoxypyridin-3-ylamino)pyridin-3-yl)-6-methyl-1,3,5-triazin-2-amine]", "IC50": 1150},
      {"molecule": "Cc1nc(N)cc(-c2cc([C@@H](C)N3CCOCC3)cnc2Nc2cnc(Cl)c(NS(=O)(=O)N(C)C)c2)n1", "note": "[Example 381, (R)—N-(2-Chloro-5-(3-(6-Amino-2-Methylpyrimidin-4-yl)-5-(1-Morpholinoethyl)Pyridin-2-Ylamino)Pyridin-3-yl)-N,N-Dimethylaminosulfamide]", "IC50": 40},
      {"molecule": "Cc1nc(N)nc(-c2cc(C3CCOCC3)cnc2Nc2cnc(Cl)c(NS(C)(=O)=O)c2)n1", "note": "[Example 328, N-(5-(3-(4-Amino-6-Methyl-1,3,5-Triazin-2-yl)-5-(Tetrahydro-2H-Pyran-4-yl)Pyridin-2-Ylamino)-2-Chloropyridin-3-yl)Methanesulfonamide]", "IC50": 1},
      {"molecule": "COc1ncc(Nc2ncc(C(N3CCN(S(C)(=O)=O)CC3)C(F)(F)F)cc2-c2nc(C)nc(N)n2)cc1F", "note": "(stereo not shown) [Example 325, 4-(2-(5-Fluoro-6-Methoxypyridin-3-Ylamino)-5-(2,2,2-Trifluoro-1-(4-(Methylsulfonyl)Piperazin-1-yl)Ethyl)Pyridin-3-yl)-6-Methyl-1,3,5-Triazin-2-Amine]", "IC50": 26},
      {"molecule": "COc1ncc(Nc2ncc([C@@H](C)N3CCN(S(C)(=O)=O)CC3)cc2-c2nc(C)nc(N)n2)cc1F", "note": "[Example 148, (R)-4-(2-(5-Fluoro-6-Methoxypyridin-3-Ylamino)-5-(1-(4-(Methylsulfonyl)Piperazin-1-yl)Ethyl)Pyridin-3-yl)-6-Methyl-1,3,5-Triazin-2-Amine]", "IC50": 5},
      {"molecule": "CC(=O)Nc1cc(-c2cnccc2Nc2cccc3[nH]ccc23)nc(C)n1", "note": "[Example 108, N-(6-(4-(1H-indol-4-ylamino)pyridin-3-yl)-2-methylpyrimidin-4-yl)acetamide]", "IC50": 1220},
      {"molecule": "Cc1nc(-c2cc(Cc3ccc(S(C)(=O)=O)cc3)cnc2Nc2cccc3[nH]ncc23)c2nc[nH]c2n1", "note": "[Example 104, N-(3-(2-methyl-9H-purin-6-yl)-5-(4-(methylsulfonyl)benzyl)pyridin-2-yl)-1H-indazol-4-amine]", "IC50": 130}
    ]}
  ]
}
